From patent publication US8222218B2, “Cyclopropanated carbohydrates” (Seton Hall University, priority 2008, dated 2012)
pKi: −log10 of the molar value. Like-named read-outs stand apart in the source and are kept apart here.

Legend:
MES-induced seizures [1] = assay: Maximal Electroshock Seizure (MES) test, rats; type: in vivo; details: rat, p.o., 30 mg/kg
Method: (§1) Toxicity was measured using the minimal motor impairment test described below.
The MES test is a model for generalized tonic-clonic seizures. The seizures are highly reproducible and electrophysiologically consistent with human seizures. The test provides information about a compound's ability to prevent the spread of seizure when all neuronal circuits of the brain are maximally active. 60 Hz of alternating current (50 mA in mice, 150 mA in rats) is applied for 2 seconds via corneal electrodes that have been treated with an electrolyte solution containing an anesthetic (0.5% tetracaine HCl). Mice are tested at a variety of intervals after an i.p. injection of […] solution of the test compound (commonly in a 0.5% solution of methylcellulose) at 30, 100, and 300 mg/kg doses. Rats are examined after a 30 mg/kg (per os, p.o.) dose that is applied in a volume of 0.04 mL/g. An animal is considered “protected” from MES-induced seizures upon removal of the hind limb extensor component of the seizure.
(§2) Male and female albino CF1 mice (18-25 g, Charles River, Portage, Mich.) and male albino Sprague-Dawley rats (275-300 g, kindling test; 100-150 g all other tests; Charles River, Raleigh, N.C.) were used as experimental animals.

[2] = tested on: metrazole-induced clonic seizures; assay: Subcutaneous Metrazole Seizure Threshold Test (scMET), rats; type: in vivo; details: rat, row printed as 300, 0.4 h
MES-induced seizures [3] = assay: Maximal Electroshock Seizure (MES) test, mice; type: in vivo; details: Mus musculus, ip, mice, i.p.
Method in brief: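 Seizures were induced by a 60 Hz corneal current for 2 s (50 mA in CF1 mice, 150 mA in Sprague-Dawley rats). Mice received 30, 100 or 300 mg/kg i.p. in 0.5% methylcellulose and were tested at several intervals; rats received 30 mg/kg p.o. Protection means abolition of hind-limb tonic extension.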

[4] = target: T1, cloned, human D1 receptor (Homo sapiens, UniProt P21728); assay: Radioligand competition binding assay, [3H]SCH23390
T1 construct: expressed in transfected cells
Text: Receptor binding profiles were provided by the National Institute of Mental Health's Psychoactive Drug Screening Program, Contract # N01 MH32004 (NIMH PDSP) The NIMH PDSP is directed by Bryan L. Roth M. D., Ph.D. at the University of North Carolina at Chapel Hill and Project Officer Jamie Driscol at NIMH, Bethesda Md., USA. Protocols for receptor-based assays by the PDSP may be found on the website: http://pdsp.med.unc.edu/pdspw/binding.php and http://pdsp.med.unc.edu/pdspw/function.php (Apr. 30, 2008).
Radioligand competition binding assays were performed as previously described (Rothman, R. B., Baumann, M. H., Savage, J. E., Rauser, L., McBride, Hufeisen, S. J., Roth B. L. Circulation (2000) 102:2836-2841) for Compounds 7 and 16. Briefly, test compounds were dissolved to 10 mM in 100% DMSO, then diluted to the desired concentrations (spanning seven orders of magnitude) in Dopamine Binding Buffer (50 mM NaCl, 50 mM HEPES, 5 mM MgCl2, 0.5 mM EDTA, pH 7.4). Diluted test and reference compounds were added to wells containing radioligand ([^3H]SCH23390, 0.3 nM final concentration) and buffer, then membrane fractions from cells stably expressing cloned, human D1 or D5 receptors were added and binding was allowed to equilibrate at room temperature for 1.5 hours. At equilibrium, reactions were filtered (using a FilterMate 96-well harvester, PerkinElmer) onto GF-A glass fiber filters (Wallac) and allowed to dry. Meltilex scintillant (Wallac) was melted onto the dry filters, and then allowed to cool. Filters were then sealed in plastic bags and counted on a Wallac TriLux microbeta counter.
Raw data (dpm) representing total radioligand binding (i.e., specific+non-specific binding) were plotted as a function of the logarithm of the molar concentration of the competitor (i.e., test or reference compound). Non-linear regression of the normalized (i.e., percent radioligand binding compared to that observed in the absence of test or reference compound) raw data is performed in Prism 4.0 (GraphPad Software) using the built-in three parameter logistic model describing ligand competition binding to radioligand-labeled sites: y=bottom+[(top−bottom)/(1+10^x−logIC50)] where bottom equals the residual radioligand binding measured in the presence of 10 μM reference compound (i.e., non-specific binding) and top equals the total radioligand binding observed in the absence of competitor. The log IC50 (i.e., the log of the ligand concentration that reduces radioligand binding by 50%) is thus estimated from the data and used to obtain the Ki by applying the Cheng-Prusoff approximation: Ki=IC50/(1+[ligand]/KD) where [ligand] equals the assay radioligand concentration and KD equals the affinity constant of the radioligand for the target receptor.

[5] = Acute toxicity, minimal motor impairment (ataxia), rats; type: in vivo; details: rat, 30 mg/kg
Method: as §1
Animals are monitored for overt signs of impaired neurological or muscular function to assess a compound's toxicity. In mice, the rotorod procedure is used to disclose minimal muscular or neurological impairment. When a mouse is placed on a rotating rod (6 rpm), the animal can maintain its equilibrium for long periods of time. The animal is considered toxic if it falls off the rotating rod three times during a 1 minute period. In rats, minimal motor deficit is indicated by ataxia, which is manifested by an abnormal, uncoordinated gait. Rats used for toxicity evaluation are examined before the test drug is given as individual animals may have peculiarities in gait, equilibrium, and pacing response which must be distinguished from potential effects of the test substance.
as §2

[6] = tested on: metrazole-induced clonic seizures; assay: Subcutaneous Metrazole Seizure Threshold Test (scMET), mice; type: in vivo; details: Mus musculus, sc, mice
Method in brief: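 CF1 mice dosed with test compound at 30, 100 and 300 mg/kg; Sprague-Dawley rats at 50 mg/kg p.o. At compound TPE, metrazole at CD97 (85 mg/kg in mice) injected s.c. in the neck. Animals observed 30 min; endpoint is a 3-5 s clonic spasm episode.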

T1 sequence (P21728 whole entry): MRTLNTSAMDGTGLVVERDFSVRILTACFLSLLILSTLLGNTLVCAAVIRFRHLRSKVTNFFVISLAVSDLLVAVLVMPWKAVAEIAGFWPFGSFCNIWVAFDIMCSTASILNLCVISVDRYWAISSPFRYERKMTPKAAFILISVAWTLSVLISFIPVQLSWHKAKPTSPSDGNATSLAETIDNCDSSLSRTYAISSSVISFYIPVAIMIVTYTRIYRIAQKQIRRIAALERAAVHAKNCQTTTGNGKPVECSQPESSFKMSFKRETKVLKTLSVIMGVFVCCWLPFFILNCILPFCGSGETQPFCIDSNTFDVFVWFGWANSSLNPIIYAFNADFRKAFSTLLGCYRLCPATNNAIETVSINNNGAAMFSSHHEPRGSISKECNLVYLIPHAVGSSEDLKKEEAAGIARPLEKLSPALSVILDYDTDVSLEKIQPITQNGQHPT

Compound: CCOC(=O)C1[C@@H]2[C@@H](O)[C@@H]3O[C@H](c4ccc(OC)cc4)OC[C@H]3O[C@H]12 (stereo partly drawn) [Compound 16, ethyl (2R,4aR,5aS,6aR,7R,7aS)-7-hydroxy-2-(4-methoxyphenyl)hexahydro-4H-cyclopropa[5,6]pyrano[3,2-d][1,3]dioxine-6-carboxylate]
- MES 30 0.5 h (animals protected/tested) (MES-induced seizures [1]; 0.5 h): 0/4
- MES 30 4 h (animals protected/tested) (MES-induced seizures [1]; 4 h): 1/4
- scMET 300 0.4 h (animals protected/tested) [2]: 0/4
- responders at 30 mg/kg (MES-induced seizures [3]; 0.5 h, read-out: MES 30 0.5 h (animals protected/tested)): 0%
- responders at 30 mg/kg (MES-induced seizures [3]; 4 h, read-out: MES 30 4 h (animals protected/tested)): 0%
- responders at 100 mg/kg (MES-induced seizures [3]; 0.5 h, read-out: MES 100 0.5 h (animals protected/tested)): 0%
- responders at 100 mg/kg (MES-induced seizures [3]; 4 h, read-out: MES 100 4 h (animals protected/tested)): 0%
- responders at 300 mg/kg (MES-induced seizures [3]; 0.5 h, read-out: MES 300 0.5 h (animals protected/tested)): 0%
- responders at 300 mg/kg (MES-induced seizures [3]; 4 h, read-out: MES 300 4 h (animals protected/tested)): 0%
- pKi ([4]; D1 dopamine receptor, [3H]SCH23390 0.3 nM, Cheng-Prusoff): 5.32
- inhibition of the D1 dopamine receptor ([4]; radioligand competition binding): significant inhibition
- TOX 30 4 h (animals toxic/tested) [5]: 0/4
- responders at 30 mg/kg ([6]; 0.4 h, read-out: scMET 30 0.4 h (animals protected/tested)): 0%
- responders at 30 mg/kg ([6]; 0.5 h, read-out: scMET 30 0.5 h (animals protected/tested)): 0%
- responders at 100 mg/kg ([6]; 0.4 h, read-out: scMET 100 0.4 h (animals protected/tested)): 0%
- responders at 100 mg/kg ([6]; 0.5 h, read-out: scMET 100 0.5 h (animals protected/tested)): 0%
- responders at 300 mg/kg ([6]; 0.4 h, read-out: scMET 300 0.4 h (animals protected/tested)): 0%
- responders at 300 mg/kg ([6]; 0.5 h, read-out: scMET 300 0.5 h (animals protected/tested)): 0%
